Columns and labels:
IPOHE = assay: Example IV: pre-emergence soil-applied weed control, greenhouse; assay type: in vivo, Ipomoea hederacea Jacq. (ivyleaf morningglory); conditions: 27 DAA
Excerpt: Seeds or nutlets of the desired test plant species were planted in a soil matrix prepared by mixing a loam soil (32 percent silt, 23 percent clay, and 45 percent sand, with a pH of about 6.5 and an organic matter content of about 1.9 percent) and calcareous grit in an 80 to 20 ratio. The soil matrix was contained in plastic pots with a volume of 1 quart and a surface area of 83.6 square centimeters (cm^2).
(§1) Treatments consisted of the benzyl ester of 4-amino-3-chloro-5-fluoro-6-(4-chloro-2-fluoro-3-methoxy-phenyl)pyridine-2-carboxylic acid (compound A) formulated as an SC (suspension concentrate) and various herbicidal components alone and in combination. Forms of compound A were applied on an acid equivalent basis.
Other herbicidal components were applied on an active ingredient basis and included very long chain fatty acid (VLCFA) synthesis-inhibiting and fatty acid/lipid synthesis-inhibiting herbicides alachlor (technical grade material), dimethenamid-P formulated as Outlook®, and S-metolachlor formulated as Dual® II Magnum.
(§2) Treatment requirements were calculated based upon the rates being tested, the concentration of active ingredient or acid equivalent in the formulation, and a 12 mL application volume at a rate of 187 L/ha.
(§3) For treatments comprised of formulated compounds, measured amounts of compounds were placed individually in 25 mL glass vials and diluted in a volume of 1.25% (v/v) Agri-Dex® crop oil concentrate (COC) to obtain 12× stock solutions. […] Application solutions were prepared by adding an appropriate amount of each stock solution (e.g., 1 mL) and diluted to the appropriate final concentrations with the addition of 10 mL of an aqueous mixture of 1.25% (v/v) COC so that the final spray solutions contained 1.25% (v/v) COC.
(§4) For treatments comprised of technical compounds, weighed amounts can be placed individually in 25 mL glass vials and dissolved in a volume of 97:3 (v/v) acetone/DMSO to obtain 12× stock solutions. […] Application solutions can be prepared by adding an appropriate amount of each stock solution (e.g., 1 mL) and diluted to the appropriate final concentrations with the addition of 10 mL of an aqueous mixture of 1.5% (v/v) COC so that the final spray solutions contain 1.25% (v/v) COC. When technical materials are used, the concentrated stock solutions can be added to the spray solutions so that the final acetone and DMSO concentrations of the application solutions are 16.2% and 0.5%, respectively.
For treatments comprised of formulated and technical compounds, weighed amounts of the technical materials were placed individually in 25 mL glass vials and dissolved in a volume of 97:3 (v/v) acetone/DMSO to obtain 12× stock solutions, and measured amounts of the formulated compounds were placed individually in 25 mL glass vials and diluted in a volume of 1.5% (v/v) COC or water to obtain 12× stock solutions. […] Application solutions were prepared by adding an appropriate amount of each stock solution (e.g., 1 mL) and diluted to the appropriate final concentrations with the addition of an appropriate amount of an aqueous mixture of 1.5% (v/v) COC so that the final spray solutions contained 1.25% (v/v) COC. As required, additional water and/or 97:3 (v/v) acetone/DMSO was added to individual application solutions so that the final acetone and DMSO concentrations of the application solutions being compared were 8.1% and 0.25%, respectively.
All stock solutions and applications solutions were visually inspected for compound compatibility prior to application. Spray solutions were applied to the soil with an overhead Mandel track sprayer equipped with a 8002E nozzles calibrated to deliver 187 L/ha over an application area of 0.503 m^2 at a spray height of 18 inches (46 cm) above average pot height. Control pots were sprayed in the same manner with the solvent blank.
The treated and control pots were placed in a greenhouse and top watered as needed. […]

FIMMI = assay: Example II: in-water applied weed control, transplanted paddy rice, greenhouse; assay type: in vivo, Fimbristylis miliacea (L.) Vahl (globe fringerush)
Method: (§5) Weed seeds or nutlets of the desired test plant species were planted in puddled soil (mud) prepared by mixing a shredded, non-sterilized mineral soil (50.5 percent silt, 25.5 percent clay, and 24 percent sand, with a pH of about 7.6 and an organic matter content of about 2.9 percent) and water at a 1:1 volumetric ratio. The prepared mud was dispensed in 365 mL aliquots into 16-ounce (oz.) non-perforated plastic pots with a surface area of 86.59 square centimeters (cm^2) leaving a headspace of 3 centimeters (cm) in each pot. Mud was allowed to dry overnight prior to planting or transplanting. Rice seeds were planted in Sun Gro MetroMix® 306 planting mixture, which typically has a pH of 6.0 to 6.8 and an organic matter content of about 30 percent, in plastic plug trays. Seedlings at the second or third leaf stage of growth were transplanted into 840 mL of mud contained in 32-oz. non-perforated plastic pots with a surface area of 86.59 cm^2 4 days prior to herbicide application. The paddy was created by filling the headspace of the pots with 2.5 to 3 cm of water. When required to ensure good germination and healthy plants, a fungicide treatment and/or other chemical or physical treatment was applied. The plants were grown for 4-22 days in a greenhouse with an approximate 14 hr photoperiod which was maintained at about 29′C during the day and 26° C. during the night. Nutrients were added as Osmocote® (19:6:12, N:P:K+ minor nutrients) at 2 g per 16-oz. pot and 4 g per 32-oz. pot. Water was added on a regular basis to maintain the paddy flood, and supplemental lighting was provided with overhead metal halide 1000-Watt lamps as necessary. The plants were employed for testing when they reached the first through fourth true leaf stage.
as §1, with “acid or esters” for “benzyl ester”, “A) each” for “A)”
(§6) The herbicidal components were applied on an active ingredient basis and included very long chain fatty acid (VLCFA) synthesis-inhibiting and fatty acid/lipid synthesis-inhibiting herbicides acetochlor (technical grade material), acetochlor+dichlormid formulateded as Topnotch®, pretilachlor (technical grade material), butachlor formulated as Butachlor EC, fentrazamide formulated as Fentrazamide EC, thiobencarb formulated as Bolero® 8EC, cafenstrole formulated as Himeadow® WP or Lapost® Flowable, benfuresate formulated as Full Shot®, anilofos (technical grade material), mefenacet (technical grade material), molinate (technical grade material), and thenylchlor (technical grade material).
(§7) Treatment requirements for each compound or herbicidal component were calculated based upon the rates being tested, the concentration of active ingredient or acid equivalent in the formulation, an application volume of 2 mL per component per pot, and an application area of 86.59 cm^2 per pot.
(§8) For formulated compounds, a measured amount was placed in an individual 100 or 200 mL glass vial and was dissolved in a volume of 1.25% (v/v) Agri-Dex® crop oil concentrate to obtain application solutions.
(§9) For technical grade compounds, a weighed amount was placed in an individual 100 to 200 mL glass vial and was dissolved in a volume of acetone to obtain concentrated stock solutions. […] The concentrated stock solutions obtained were diluted with an equivalent volume of an aqueous mixture containing 2.5% (v/v) crop oil concentrate so that the final application solutions contained 1.25% (v/v) crop oil concentrate.
(§10) Applications were made by injecting with a pipetter appropriate amounts of the application solutions, individually and sequentially, into the aqueous layer of the paddy. Control plants were treated in the same manner with the solvent blank. […]

BRAPP = assay: Example I: postemergence foliar-applied weed control, direct seeded rice weeds, greenhouse; assay type: in vivo; conditions: 20 DAA
Excerpt: (§11) Seeds or nutlets of the desired test plant species were planted in a soil matrix prepared by mixing a loam or sandy loam soil (e.g., 28.6 percent silt, 18.8 percent clay, and 52.6 percent sand, with a pH of about 5.8 and an organic matter content of about 1.8 percent) and calcareous grit in an 80 to 20 ratio. The soil matrix was contained in plastic pots with a volume of 1 quart and a surface area of 83.6 square centimeters (cm^2). When required to ensure good germination and healthy plants, a fungicide treatment and/or other chemical or physical treatment was applied. The plants were grown for 8-22 days in a greenhouse with an approximate 14 hr photoperiod which was maintained at about 29° C. during the day and 26° C. during the night. Nutrients (Peters Excel® 15-5-15 5-Ca 2-Mg and iron chelate) were applied in the irrigation solution as needed and water was added on a regular basis. Supplemental lighting was provided with overhead metal halide 1000-Watt lamps as necessary. The plants were employed for testing when they reached the first through fourth true leaf stage.
as §1, with “acid or esters” for “benzyl ester”, “(Compound A), each” for “(compound A)”, “concentrate),” for “concentrate)”
(§12) Other herbicidal components were applied on an active ingredient basis and included very long chain fatty acid (VLCFA) synthesis-inhibiting and fatty acid/lipid synthesis-inhibiting herbicides acetochlor (technical grade material), acetochlor+dichlormid formulated as Topnotch®, pretilachlor (technical grade material), butachlor formulated as Butachlor EC, fentrazamide formulated as Fentrazamide EC, thiobencarb formulated as Bolero® 8EC, cafenstrole formulated as Himeadow® WP or Lapost® Flowable, benfuresate formulated as Full Shot®, dimethenamid-P formulated as Outlook®, indanofan (technical grade material), flufenacet formulated as Define® DF, mefenacet (technical grade material), S-metolachlor formulated as Dual® II Magnum, pethoxamid formulated as Successor® 600, and pyroxasulfone (technical grade material).
as §2
as §3, with “oil concentrated” for “oil concentrate (COC)”, “(v/v) crop oil concentrate” for “(v/v) COC”, “contained 1.25+/−0.05%” for “contained 1.25%”, “(v/v) crop oil concentrate.” for “(v/v) COC.”
as §4, with “97:3 v/v” for “97:3 (v/v)”, “(v/v) crop oil concentrate” for “(v/v) COC”, “(v/v) crop oil concentrate.” for “(v/v) COC.”, “respectively. […]” for “respectively.”

DIGSA = assay: Example I: postemergence foliar-applied weed control, greenhouse; assay type: in vivo, Digitaria sanguinalis (L.) Scop. (large crabgrass); conditions: 20 DAA
Excerpt: as §11
as §1, with “acid or esters” for “benzyl ester”, “(Compound A), each” for “(compound A)”, “concentrate),” for “concentrate)”
as §12, §2
as §3, with “oil concentrated” for “oil concentrate (COC)”, “(v/v) crop oil concentrate” for “(v/v) COC”, “contained 1.25+/−0.05%” for “contained 1.25%”, “(v/v) crop oil concentrate.” for “(v/v) COC.”
as §4, with “97:3 v/v” for “97:3 (v/v)”, “(v/v) crop oil concentrate” for “(v/v) COC”, “(v/v) crop oil concentrate.” for “(v/v) COC.”, “respectively. […]” for “respectively.”

ECHCG [1] = assay: as above; assay type: in vivo, Echinochloa crus-galli (L.) Beauv. (barnyardgrass); conditions: 20 DAA
Excerpt: as §11
as §1, with “acid or esters” for “benzyl ester”, “(Compound A), each” for “(compound A)”, “concentrate),” for “concentrate)”
as §12, §2
as §3, with “oil concentrated” for “oil concentrate (COC)”, “(v/v) crop oil concentrate” for “(v/v) COC”, “contained 1.25+/−0.05%” for “contained 1.25%”, “(v/v) crop oil concentrate.” for “(v/v) COC.”
as §4, with “97:3 v/v” for “97:3 (v/v)”, “(v/v) crop oil concentrate” for “(v/v) COC”, “(v/v) crop oil concentrate.” for “(v/v) COC.”, “respectively. […]” for “respectively.”

ECHOR = assay: Example II: in-water applied weed control, transplanted paddy rice, greenhouse; assay type: in vivo, Echinochloa oryzoides (Ard.) Fritsch (early watergrass); conditions: 100 gai/ha
Method: as §5
as §1, with “acid or esters” for “benzyl ester”, “A) each” for “A)”
as §6, §7, §8, §9, §10

CYPRO = assay: as above; assay type: in vivo, Cyperus rotundus L. (purple nutsedge)
Method: as §5
as §1, with “acid or esters” for “benzyl ester”, “A) each” for “A)”
as §6, §7, §8, §9, §10

ECHCG [2] = assay: as above; assay type: in vivo, Echinochloa crus-galli (L.) Beauv. (barnyardgrass); conditions: 100 gai/ha
Method: as §5
as §1, with “acid or esters” for “benzyl ester”, “A) each” for “A)”
as §6, §7, §8, §9, §10

SMILES: CCc1cccc(CC)c1N(COC)C(=O)CCl [Alachlor, 2-chloro-N-(2,6-diethylphenyl)-N-(methoxymethyl)acetamide]
- Visual Weed Control IPOHE Obs (IPOHE; 1240 gai/ha): 5%
- Visual Weed Control IPOHE Obs (IPOHE; 2480 gai/ha): 13%

SMILES: CCOCN(C(=O)CCl)c1c(C)cccc1CC [Acetochlor, 2-chloro-N-(ethoxymethyl)-N-(2-ethyl-6-methylphenyl)acetamide]
- Visual Weed Control (%) - 20 DAA FIMMI Obs (FIMMI; 100 gai/ha): 80%
- Visual Weed Control (%) - 20 DAA FIMMI Obs (FIMMI; 200 gai/ha): 20%
- Visual Weed Control Obs (BRAPP; 100 gai/ha): 20%
- Visual Weed Control Obs (BRAPP; 200 gai/ha): 30%
- Visual Weed Control Obs (DIGSA; 100 gai/ha): 20%
- Visual Weed Control Obs (DIGSA; 200 gai/ha): 20%
- Visual Weed Control Obs (ECHCG [1]; 50 gai/ha): 0%
- Visual Weed Control Obs (ECHCG [1]; 100 gai/ha): 10%
- Visual Weed Control (%) - 20 DAA ECHOR Obs (ECHOR): 80%
- Visual Weed Control (%) - 20 DAA CYPRO Obs (CYPRO; 100 gai/ha): 20%
- Visual Weed Control (%) - 20 DAA CYPRO Obs (CYPRO; 200 gai/ha): 75%
- Visual Weed Control (%) - 22 DAA ECHCG Obs (ECHCG [2]): 65%

— patent publication US20130310256A1, “HERBICIDAL COMPOSITIONS COMPRISING 4-AMINO-3-CHLORO-5-FLUORO-6-(4-CHLORO-2-FLUORO-3-METHOXYPHENYL) PYRIDINE-2-CARBOXYLIC ACID OR A DERIVATIVE THEREOF AND VLCFA AND LIPID SYNTHESIS INHIBITING HERBICIDES” (DOW AGROSCIENCES LLC, priority 2008, published 2013)
